What was measured:
bloodstream T. brucei = assay: Cell cycle (FACS) analysis, bloodstream T. brucei; type: cell-based, Trypanosoma brucei; conditions: 5x EC50
Procedure: (§1) consisted of 1 µL (40 ng) of cDNA, 10 µL of Brilliant III Ultra-Fast QPCR Master Mix (Agilent Technologies), 1 µL (500 nM) each of the forward and reverse primers, and 0.3 µl (30 nM) of reference dye and nuclease-free PCR grade-treated water. PCR was performed using an Agilent Mx3005P machine with the following cycling conditions:
(§2) 95°C for 3 min; 40 cycles of 95°C for 20 s; then 60 °C for 20 s. The reference gene TERT (Tb927.11.10190, telomerase reverse transcriptase) was used to provide a baseline of transcription levels for normalization of the data. Relative quantification in the tetracycline-induced cell lines were normalized to the un-induced cell line using the […]
(§3) h. Morphological analysis […]
(§4) Cultures of bloodstream T. brucei and L. donovani promastigotes at starting cell densities of 5 x 105 were incubated with concentrations of compound 7 equivalent to 5x their respective EC50 values. […] After washing, cell densities were adjusted to 5 × 10^5 cells mL, re-suspended in 500 µL of PBS containing 50 µg/mL propidium iodide, 50 µg/mL RNase and 0.1% Triton X-100, incubated at room temperature for 20 min in the dark and analysed using FACSort analytical flow cytometer using Cellquest software (BD Biosciences). j. […]

[1] = system: L. donovani promastigotes; assay: Cell cycle (FACS) analysis, L. donovani promastigotes; type: cell-based, Leishmania donovani; conditions: 5x EC50
Procedure: as §1, §2, §3, §4

WP2 uvrA (pKM101) = assay: Ames test, strain WP2 uvrA (pKM101)
Procedure: (§5) oxidative metabolism system (S9-mix). The maximum concentration tested and […]
(§6) Compound 7a was tested in a bacterial mutation screening assay (Ames test) with Salmonella typhimurium TA1535, TA1537, TA98, TA100 and Escherichia coli WP2uvrA(pKM101) in the presence and absence of an exogenous mammalian […]
(§7) The bacterial mutation screening assay was a plate incorporation test carried out as previously described15 and according to current methodology. […]

TA98 = assay: Ames test, strain TA98
Procedure: as §5, §6, §7

TA1537 = assay: Ames test, strain TA1537
Procedure: as §5, §6, §7

[2] = with S9-mix, dose level 50 per plate
[3] = with S9-mix, dose level 150 per plate
[4] = with S9-mix, dose level 500 per plate
[5] = with S9-mix, dose level 1500 per plate
[6] = with S9-mix, dose level 2500 per plate
[7] = with S9-mix, dose level 5000 per plate
[8] = without S9-mix, dose level 50 per plate
[9] = without S9-mix, dose level 150 per plate
[10] = without S9-mix, dose level 500 per plate
[11] = without S9-mix, dose level 1500 per plate
[12] = without S9-mix, dose level 2500 per plate
[13] = without S9-mix, dose level 5000 per plate

O=C(Nc1ccc(F)c(-c2cn3nc(-c4ccccc4)cnc3n2)c1)N1CCCC1 [Compound 7]
effect on cell cycle progression (bloodstream T. brucei): accumulation of cells in G2/M
effect on cell cycle progression [1]: accumulation of cells in G2/M

O=C(Nc1ccc(F)c(-c2ccn3c(N4CCOCC4)cnc3n2)c1)N1CCCC1 [Compound 8]
Mean revertants per plate (WP2 uvrA (pKM101); [2]): 150.5
Mean revertants per plate (WP2 uvrA (pKM101); [3]): 164.5
Mean revertants per plate (WP2 uvrA (pKM101); [4]): 143.5
Mean revertants per plate (WP2 uvrA (pKM101); [5]): 139.0
Mean revertants per plate (WP2 uvrA (pKM101); [6]): 130.5
Mean revertants per plate (WP2 uvrA (pKM101); [7]): 133.5
Mean revertants per plate (WP2 uvrA (pKM101); [8]): 90.0
Mean revertants per plate (WP2 uvrA (pKM101); [9]): 84.5
Mean revertants per plate (WP2 uvrA (pKM101); [10]): 80.5
Mean revertants per plate (WP2 uvrA (pKM101); [11]): 87.5
Mean revertants per plate (WP2 uvrA (pKM101); [12]): 91.5
Mean revertants per plate (WP2 uvrA (pKM101); [13]): 82.0
Mean revertants per plate (TA98; [2]): 23.0
Mean revertants per plate (TA98; [3]): 25.0
Mean revertants per plate (TA98; [4]): 30.0
Mean revertants per plate (TA98; [5]): 24.5
Mean revertants per plate (TA98; [6]): 25.5
Mean revertants per plate (TA98; [7]): 25.0
Mean revertants per plate (TA98; [8]): 22.5
Mean revertants per plate (TA98; [9]): 19.0
Mean revertants per plate (TA98; [10]): 14.5
Mean revertants per plate (TA98; [11]): 19.5
Mean revertants per plate (TA98; [12]): 16.5
Mean revertants per plate (TA98; [13]): 18.0
Mean revertants per plate (TA1537; [2]): 18.0
Mean revertants per plate (TA1537; [3]): 14.5
Mean revertants per plate (TA1537; [4]): 21.0
Mean revertants per plate (TA1537; [5]): 11.0
Mean revertants per plate (TA1537; [6]): 13.5
Mean revertants per plate (TA1537; [7]): 8.5
Mean revertants per plate (TA1537; [8]): 14.0
Mean revertants per plate (TA1537; [9]): 9.5
Mean revertants per plate (TA1537; [10]): 16.0
Mean revertants per plate (TA1537; [11]): 12.5
Mean revertants per plate (TA1537; [12]): 14.5
Mean revertants per plate (TA1537; [13]): 6.5
